From paper PMC5442318, “Hundreds of dual-stage antimalarial molecules discovered by a functional gametocyte screen” (Nature Communications, 2017)
Like-named read-outs stand apart in the source and are kept apart here.

Experiments:
[1] = test system: P. falciparum stage V female gametocytes; assay: P. falciparum female gametocyte activation assay (Pf FGAA), 24 h or 48 h preincubation, Pfs25 expression readout; assay type: cell-based, Plasmodium falciparum NF54; settings: for Biological profile: Pf FGAA with 48 h, 24 h or post-activation addition, active = IC50 below 2 μM; for IC50: Plasmodium falciparum; for Pf FGAA classification: SLOW / FAST / GAMETE from activity at 48h, 24h, 0h incubation
In short: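 Female activation, triggered by xanthurenic acid and cooling, was scored by imaging Cy3-labelled anti-Pfs25 female gametes after 24 h at 26 °C. Beforehand, purified NF54 stage V gametocytes had been incubated with compound for either 24 h or 48 h (37 °C, 3% O2). Values are pIC50 from full-curve regression.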

[2] = test system: P. falciparum oocysts in Anopheles stephensi mosquitoes; assay: Standard membrane feeding assay (SMFA), indirect format; assay type: cell-based, Plasmodium falciparum; design: Oocyst Reduction Intensity %: concentration or dose not given beside the values; settings: for Block in transmission (%) (reduction in oocyst prevalence): 1 or 2 μM (Pf FGAA IC90)
Method: To validate the transmission-blocking potential of the TCAMS hits and assess the predictive value of the Pf FGAA as an in vitro high throughput surrogate of full mosquito feeding, the ‘gold-standard' SMFA was performed. Six compounds showing different biological profiles, belonging to four distinct chemical clusters, were selected based on their potencies in the Pf FGAA (Supplementary Data 1, Table 1). For each compound, inhibition of exflagellation of male gametocytes was measured. […] Compounds were tested in duplicate in 2–3 independent experiments in the indirect format of the assay, that is, gametocytes were exposed to the drug for 48 h before mosquito feeding to replicate a drug exposure time equivalent to that used in the Pf FGAA. […] By contrast, TCMDC-124559 reduced prevalence and intensity by <20% (Fig. 6a,b, respectively).
Day-14 gametocyte cultures were plated in pre-warmed six-well-plates (5 ml per well) and were exposed to the compounds (1 μM or 2 μM final concentration) for 48 h at 37 °C (3% O2, 5% CO2 and 92% N2). Within this incubation time, 3 ml of media were removed after the first 24 h and replenished with the same volume of fresh media with compound added to obtain the required final concentration. After 48 h of total exposure, cultures were centrifuged at 2,500 g for 3 min at 37 °C, diluted 1:1 with 100% packed volume of fresh erythrocytes and finally formulated as artificial mosquito blood meals at 50% haematocrit with pre-warmed human serum. All steps were performed at 37 °C to avoid gametocyte activation. Four- to six-day old female Anopheles stephensi mosquitoes (GlaxoSmithKline Insectary) were fed for 30 min via Parafilm membrane attached to glass feeders (12831283, Fisher Scientific) connected to a 37 °C circulating water bath. Fed mosquitoes were maintained in an incubator at 27 °C and 75% relative humidity with 12 h light/dark cycles. Seven to eight days post-feeding, mosquitoes with fully developed ovaries were dissected for midguts, which were rinsed in a 0.2% mercury-dibromofluorescein (63869, Fluka) in water solution for 10 min. Total number of oocysts in individual midguts were counted using a light microscope (DM2000, Leica) under a × 10 objective. The percentage of block in transmission (reduction in prevalence) and the percentage of reduction in mean oocyst intensity were calculated after normalizing to the control DMSO-treated sample. Two to three independent SMFA experiments were performed and two internal duplicates of 40 mosquitoes each were used per compound. Mean oocyst intensities were not less than two oocysts per mosquito and the prevalence of infection ranged from 70 to 90% in the fed mosquito control groups. See complete experimental data set in Supplementary Table 1 and Supplementary Note 1.

[3] = 24h incubation time, read-out: Pf FGAA IC50 (µM) 24h
[4] = stage V gametocytes, 48 h exposure, read-out: PfFGAA IC50
[5] = 48 h exposure before feeding, mean of 2-3 experiments

IC50 [1, 3] | IC50 [1, 4] | SMILES | Biological profile [1] | Pf FGAA classification [1] | Block in Transmission % ([2]; Expt 1) | Mean Oocyst Intensity in Test Compound ([2]; Expt 1) | Oocyst Reduction Intensity % ([2]; Expt 1) | Prevalence of Infection in Test Compound ([2]; Expt 1) | Block in Transmission % ([2]; Expt 2) | Mean Oocyst Intensity in Test Compound ([2]; Expt 2) | Oocyst Reduction Intensity % ([2]; Expt 2) | Prevalence of Infection in Test Compound ([2]; Expt 2) | Block in Transmission % ([2]; Expt 3) | Mean Oocyst Intensity in Test Compound ([2]; Expt 3) | Oocyst Reduction Intensity % ([2]; Expt 3) | Prevalence of Infection in Test Compound ([2]; Expt 3) | Block in transmission (%) (reduction in oocyst prevalence) [2, 5] | further results
1.68 µM | 0.53 µM | CC(C)(CNC(=O)[C@H]1CCCCN1)c1nc(-c2ccc(Cl)c(O)c2)c(-c2ccncc2)[nH]1 [TCMDC-141070] | Gamete-targeting | GAMETE | 100% | 0 | 100% | 0 | 78% | 0.2 | 92% | 15.4 | 100% | 0 | 100% | 0 |  | 
 | 0.5 µM | CC1Cc2ccccc2N1S(=O)(=O)c1cccc(C(=O)Nc2nc(-c3ccccn3)cs2)c1 (stereo not shown) [TCMDC-124559] | Fast-acting | FAST | 5% | 4.1 | 24% | 74.29 | 0% | 2.5 | 0% | 70 | 13% | 2.8 | 39% | 79.17 | < 20% | IC50 ([1]; P. falciparum female gametocytes, mean, read-out: Gametocytes mean Pf FGAA IC50): 0.34 µM; reduction in oocyst intensity ([2]; 48 h exposure before feeding, 1 or 2 μM, mean of 2-3 experiments): < 20%
0.44 µM | 0.44 µM | Cc1ccc(Cn2nc(Cl)c(N3CCNCC3)cc2=O)cc1NC(=O)Nc1ccc(-c2ccccc2)cc1 [TCMDC-141698] | Gamete-targeting | GAMETE | 82% | 0.2 | 97% | 14.04 | 90% | 0.2 | 97% | 8.8 |  |  |  |  | 82% | IC50 ([1]; 48h incubation time, read-out: Pf FGAA IC50 (µM) 48h): 0.44 µM; IC50 ([1]; mean, P. falciparum female gametocyte activation assay, read-out: Gametocytes mean Pf FGAA IC50): 0.44 µM
0.96 µM | 0.36 µM | COc1cc(OC)cc(C(=O)Nc2nc(-c3ccccn3)cs2)c1 [TCMDC-125345] | Fast-acting | FAST | 54% | 0.7 | 88% | 35.97 | 58% | 1.0 | 83% | 38.22 |  |  |  |  | 60% | 
0.41 µM | 0.21 µM | NCC1(c2nc(-c3ccc(Cl)c(O)c3)c(-c3ccncc3)[nH]2)CCCCC1 [TCMDC-141154] | Gamete-targeting | GAMETE | 93% | 0.1 | 99% | 5.46 | 93% | 0.1 | 98% | 6.16 |  |  |  |  | 93% | 

SMILES | IC50 [1, 3] | IC50 [1, 4] | Biological profile [1] | Pf FGAA classification [1] | Block in Transmission % ([2]; Expt 1) | Mean Oocyst Intensity in Test Compound ([2]; Expt 1) | Oocyst Reduction Intensity % ([2]; Expt 1) | Prevalence of Infection in Test Compound ([2]; Expt 1) | Block in Transmission % ([2]; Expt 2) | Mean Oocyst Intensity in Test Compound ([2]; Expt 2) | Oocyst Reduction Intensity % ([2]; Expt 2) | Prevalence of Infection in Test Compound ([2]; Expt 2) | Block in Transmission % ([2]; Expt 3) | Mean Oocyst Intensity in Test Compound ([2]; Expt 3) | Oocyst Reduction Intensity % ([2]; Expt 3) | Prevalence of Infection in Test Compound ([2]; Expt 3) | Block in transmission (%) (reduction in oocyst prevalence) [2, 5] | further results
FC(F)(F)c1cnc(Sc2nnc(-c3ccncc3)o2)c(Cl)c1 [TCMDC-123767] | > 20 µM | 0.16 µM | Slow-acting | SLOW | 83% | 0.1 | 97% | 13.26 | 85% | 0.1 | 97% | 13.2 |  |  |  |  | 83% | 
